# Source: publication PMC7156612, “Olinciguat, an Oral sGC Stimulator, Exhibits Diverse Pharmacology Across Preclinical Models of Cardiovascular, Metabolic, Renal, and Inflammatory Disease” (Frontiers in Pharmacology, 2020)
# Several values for one entry are separate records, joined by “and”; a condition that tells them apart may be missing. Equal values may be shown once. Read-outs that look alike come from different tables or passages of the source.
# Legend:
# [1] = parameters: method as in Mittleman et al., 2017; conditions: healthy human subjects, ref Mittleman et al., 2017, cited from earlier work
# [2] = tested on: Dahl salt-sensitive (DSS) rats on high salt diet; experiment: Dahl salt-sensitive rat model; assay type: in vivo; conditions: for MAP at the end of the treatment period: 6 weeks; for LV+S weight normalized to body weight: end of 6-week treatment
# Method: (§1) The Dataquest A.R.T.™ acquisition and analysis system (Data Sciences International [DSI], St. Paul, MN) was employed to monitor and analyze hemodynamic data from conscious, freely moving rats surgically implanted with a telemetry pressure transmitter (PA-C40). Telemetry transmitter implantation was performed on rats under sterile conditions. Rats were anesthetized with isoflurane and body temperature was maintained with a heating pad during surgery. A laparotomy was performed to expose the abdominal aorta. The catheter tip of the telemetry transmitter was inserted into the abdominal aorta and secured with a 5-0 silk suture (Ethicon, Inc., Somerville, NJ). The abdominal incision was closed with uninterrupted suture (4-0 silk, Ethicon, Inc., Somerville, NJ) and the telemetry transmitter was placed in the abdominal cavity and secured to the abdominal wall. Approximately 100 µl of 0.25% marcaine was applied directly to the closed abdominal wall, and the skin was then closed with suture (4-0 Vicryl® absorbable, Ethicon, Inc., Somerville, NJ). Buprenorphine (0.05 mg/kg/day, subcutaneous [s.c.]) was administered immediately after the surgery for postoperative pain relief. After recovery from anesthesia, rats were returned to their home cages, placed on DSI receivers, and allowed a 5- to 14-day recovery period. Arterial hemodynamics were measured continuously and recorded throughout the study. For acute studies, analysis was based on hourly averages, for chronic studies, analysis was based on daily or weekly averages.
# (§2) Male DSS rats (n = 48, 230–300 g) were implanted with telemetry transmitters as described above. During the 2-week pretreatment period and the 6-week treatment period, rats were either fed a NS diet (0.3% NaCl, n=8) or a HS diet (8% NaCl). During the treatment period, one group of HS rats was continued on HS diet (HS, n=8) and a second group of HS rats was switched to a HS diet containing olinciguat targeting the dose equivalent of 10 mg/kg/day (OLI10, n=8). At the end of the 6-week treatment period, body weight was measured, urine was collected over a 24-h period using a metabolic cage for urinalysis, and blood samples were collected for plasma biomarker analyses. At the end of the study, rats were anesthetized, and whole bodies were perfused via the left ventricle with heparinized PBS (1 U/ml heparin) containing IBMX (1mM). Organs were collected and weighed. All organ weights were normalized to body weight. After weighing the heart, the right ventricular free wall was removed, and the left ventricular free wall plus left ventricular septum (LV+S) were weighed.
# (§3) In the DSS model, daily MAP (24-h average) data were analyzed using two-way ANOVA, with time and treatment group as independent variables. For each day, groups were compared to the HS group with a Dunnett's post-hoc test. Body weight, LV+S, cardiac weight, lung weight, kidney weight, plasma NT-proBNP, and 24-h urine protein excretion (UPE) data were analyzed by one-way ANOVA, followed by Dunnett's multiple comparison to the HS group.
# [3] = Dahl salt-sensitive rat model; assay type: in vivo; conditions: male, Dahl salt-sensitive (DSS), rat, plasma, oral; DSS rats, 10 mg/kg/day in chow, week 6, n=6; read-out: average total plasma concentration of olinciguat
# Method: as §1, §2, §3
# [4] = tested on: spontaneously hypertensive rats (SHR); experiment: Arterial hemodynamics by telemetry in spontaneously hypertensive rats; assay type: in vivo, rat
# Method: as §1
# Spontaneously hypertensive rats (SHRs) (n=6, male, 230–250 g, 14 weeks of age) and Wistar rats (n=6, male, 230–250 g, 12 weeks of age) were implanted with telemetry transmitters as described above. Olinciguat was formulated as a suspension in a vehicle containing 0.5% methylcellulose and 0.2% Tween. Rats were p.o. dosed with a dosing volume of 5 ml/kg. […] Using plasma from tail vein, olinciguat plasma concentrations were determined at 1, 6, and 24 h post-dose on day 4 and reported as the mean from Wistar (n=3) and SHR (n=3). Hemodynamics were recorded hourly during a 24-h baseline period and over the first 3 days of dosing.
# Maximum change from baseline of mean arterial pressure (MAP) was calculated using the 24-h pre-first dose average subtracted from the lowest MAP value recorded within 2 h following dosing. The 1-h post-dose change from baseline heart rate (HR) was calculated using the 3-h pre-first dose average subtracted from the 1-h post-dose average.
# In the hemodynamic study in Wistar and SHR, hourly MAP data were analyzed using a repeated measures two-way ANOVA, with time and treatment group as independent variables. Significance at each timepoint was determined as compared to the vehicle control using a Dunnett's post-hoc test.
# [5] = Olinciguat plasma concentration in hemodynamic study (pooled Wistar and SHR); assay type: in vivo, rat; conditions: for concentration at 1 h: male, Wistar and SHR (spontaneously hypertensive rat), pooled, rat, plasma, oral, mean and SEM of 6 animals (n=3 Wistar, n=3 SHR), read-out: average plasma concentration 1 h after dosing on Day 4
# Method: Blood from i.v. and p.o. dosed rats was collected at 16 timepoints (2 groups of rats, 8 timepoints per group) over 24 h. Samples were collected into potassium ethylenediamine tetraacetic acid (K2EDTA) tubes, centrifuged (3,500 rpm for 10 min) to yield plasma. In the pharmacokinetic studies and in all in vivo studies, olinciguat plasma concentrations were determined by LC-MS/MS. Pharmacokinetic (PK) parameters were calculated by noncompartmental analysis using sparse sampling in Phoenix® WinNonLin® v.6.3 (Certara, Princeton, NJ).
# Spontaneously hypertensive rats (SHRs) (n=6, male, 230–250 g, 14 weeks of age) and Wistar rats (n=6, male, 230–250 g, 12 weeks of age) were implanted with telemetry transmitters as described above. Olinciguat was formulated as a suspension in a vehicle containing 0.5% methylcellulose and 0.2% Tween. Rats were p.o. dosed with a dosing volume of 5 ml/kg. In a weekly-dose escalation design, rats were administered vehicle (week 1), olinciguat 1 mg/kg (week 2), 3 mg/kg (week 3), and 10 mg/kg (week 4). For each dose level, rats were dosed once daily (QD) for 4 days. Using plasma from tail vein, olinciguat plasma concentrations were determined at 1, 6, and 24 h post-dose on day 4 and reported as the mean from Wistar (n=3) and SHR (n=3). Hemodynamics were recorded hourly during a 24-h baseline period and over the first 3 days of dosing.
# [6] = Plasma protein binding (equilibrium dialysis), human; assay type: in vitro ADME; conditions: 1 and 10 μM, equilibrium dialysis 18 h, read-out: bound to plasma proteins (converted)
# Method: Concentrated (10 mM) DMSO stock solutions of olinciguat were diluted to 1 and 10 μM in 2.5 ml of rat (male and female Sprague Dawley) and human plasma. Concentrated [^14C]-labeled olinciguat (1 μl,1 mCi/ml stock concentration) was spiked into each sample and mixed by vortexing. Triplicate 500 μl aliquots of plasma containing [^14C]-labeled olinciguat were transferred to a Rapid Equilibrium Dialysis system and dialyzed (molecular weight cut-off ~8000 Da) against 500 μl of phosphate-buffered saline (PBS) at room temperature for 18 h. Radioactivity of [^14C]-labeled olinciguat in PBS and plasma samples was measured using liquid scintillation counting.
smiles,measurement,setting,value
"NC(=O)[C@](O)(CNc1nc(-c2cc(-c3ccon3)n(Cc3ccccc3F)n2)ncc1F)C(F)(F)F [olinciguat, (R)-3,3,3-trifluoro-2-(((5-fluoro-2-(1-(2-fluorobenzyl)-5-(isoxazol-3-yl)-1H-pyrazol-3-yl)pyrimidin-4-yl)amino)methyl)-2-hydroxypropanamide]",terminal-phase half-life,[1]; repeat dosing with oral tablets,~ 30 h
same,"renal clearance, percent of apparent total body clearance [CL/F]",[1],≤ 0.3%
same,Olinciguat concentration (free),"[2]; 10 mg/kg/day, total plasma concentration x 1.0% free",0.22–0.29 nM^e
same,MAP at the end of the treatment period,"[2]; HS diet, olinciguat 10 mg/kg/day in chow",192 mmHg
same,MAP at the end of the treatment period,"[2]; HS diet, olinciguat 10 mg/kg/day in chow, listed as OLI10",192 ± 7 mmHg
same,MAP on day 16 (after treatment initiation),"[2]; HS diet, olinciguat 10 mg/kg/day in chow, 161 ± 7 mmHg on day 14 before treatment",146 ± 7 mmHg
same,"lung weight, fold higher than in NS","[2]; HS diet, olinciguat 10 mg/kg/day vs NS control",1.2 fold
same,lung weight normalized to body weight,"[2]; HS diet, olinciguat 10 mg/kg/day, HS 8.9 ± 1.7",↓ lung weight
same,lung weight normalized to body weight,"[2]; HS diet, olinciguat 10 mg/kg/day, HS 8.9 ± 1.7, listed as OLI10",4.0 ± 0.1 g/kg BW
same,normalized kidney weight,"[2]; HS diet, olinciguat 10 mg/kg/day, HS 10.9 ± 0.5, not significantly different",10.2 ± 0.23 g/kg BW
same,24-h urine protein excretion (UPE),"[2]; HS diet, olinciguat 10 mg/kg/day, HS 643 ± 60, not statistically significant",599 ± 70 mg
same,average body weight at the end of the treatment period,"[2]; HS diet, olinciguat 10 mg/kg/day, HS control 364 ± 19",412 ± 11 g
same,cardiac weight vs HS,"[2]; HS diet, olinciguat 10 mg/kg/day, data not shown",lower in OLI10 than HS
same,LV+S weight normalized to body weight,"[2]; HS diet, olinciguat 10 mg/kg/day, HS 4.1 ± 0.2",↓ cardiac hypertrophy
same,LV+S weight normalized to body weight,"[2]; HS diet, olinciguat 10 mg/kg/day, HS 4.1 ± 0.2, listed as OLI10",3.3 ± 0.1 g/kg BW
same,difference in MAP between olinciguat-treated and HS disease control at end of treatment period,"[2]; HS diet, olinciguat 10 mg/kg/day, lower than HS, listed as OLI10",15 mmHg
same,plasma NT-proBNP,"[2]; HS diet, olinciguat 10 mg/kg/day, n=6, HS 2,833 ± 416",↓ NT-proBNP
same,plasma NT-proBNP,"[2]; HS diet, olinciguat 10 mg/kg/day, n=6, HS 2,833 ± 416, listed as OLI10","1,235 ± 301 pg/ml"
same,"NT-proBNP, percent lower than untreated controls",[2]; olinciguat 10 mg/kg/day,56%
same,concentration at 6 weeks,[3],25.4 ± 3.8 nM
same,MAP vs vehicle-treated rats,[4]; 1 mg/kg p.o. QD,only lower than vehicle-treated rats on the third day of dosing
same,MAP vs vehicle-treated rats,"[4]; 3 mg/kg p.o. QD, 6-h period following dosing on all 3 days",significantly lower than vehicle-treated rats
same,MAP vs vehicle-treated rats,"[4]; 10 mg/kg p.o. QD, 6-h period following dosing on all 3 days",significantly lower than vehicle-treated rats
same,maximum absolute change in MAP,"[4]; 10 mg/kg p.o. QD, day 3, 10 mg/kg",−26 ± 2 mmHg and −26^b mmHg
same,Olinciguat concentration (free),"[5]; 10 mg/kg, pooled samples from Wistar and SHR, total plasma concentration x 1.0% free","1.6–3.3 nM^a,e"
same,concentration at 1 h,[5]; 1 mg/kg p.o. QD,57.3 ± 38.7 nM
same,concentration at 1 h,[5]; 3 mg/kg p.o. QD,132 ± 30 nM
same,concentration at 1 h,[5]; 10 mg/kg p.o. QD,245 ± 86 nM
same,fraction unbound at 18 h,[6],0.0199
